# Results: ChEMBL document CHEMBL5465560, “Selectivity Literature for EUbOPEN Chemogenomic Library” (2024)
# Tests used:
# [1] = molecular target: T1, Protein kinase C iota type (Homo sapiens) (UniProt P41743); details: at 10 µM
# T1 sequence (whole entry): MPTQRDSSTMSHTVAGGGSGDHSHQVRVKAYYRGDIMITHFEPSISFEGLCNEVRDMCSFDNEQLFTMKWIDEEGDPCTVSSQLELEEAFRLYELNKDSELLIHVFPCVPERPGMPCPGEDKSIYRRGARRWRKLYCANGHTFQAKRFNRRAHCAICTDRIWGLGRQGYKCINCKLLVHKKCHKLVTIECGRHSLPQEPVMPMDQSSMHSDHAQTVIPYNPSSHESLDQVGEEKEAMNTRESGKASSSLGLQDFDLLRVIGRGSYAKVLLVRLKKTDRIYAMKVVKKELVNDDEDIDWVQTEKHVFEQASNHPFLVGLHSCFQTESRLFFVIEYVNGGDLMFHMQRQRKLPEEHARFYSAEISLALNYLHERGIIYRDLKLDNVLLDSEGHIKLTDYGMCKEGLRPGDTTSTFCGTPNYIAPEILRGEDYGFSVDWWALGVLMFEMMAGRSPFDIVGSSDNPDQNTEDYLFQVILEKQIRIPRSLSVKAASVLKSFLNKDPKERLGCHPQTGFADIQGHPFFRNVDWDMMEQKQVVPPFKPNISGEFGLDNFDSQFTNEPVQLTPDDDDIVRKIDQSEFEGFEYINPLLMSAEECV
# [2] = molecular target: Serine/threonine-protein kinase WNK2 (Homo sapiens) (UniProt Q9Y3S1); assay: Selectivity interaction (ActivX KiNativ screen (kinase selectivity in THP-1 cell lysates)) EUB0000639a WNK2; format: subcellular; details: lysate, at 0.2 µM
# [3] = molecular target: T2, Serine/threonine-protein kinase TAO3 (Homo sapiens) (UniProt Q9H2K8); assay: Selectivity interaction (KinomeScan (DiscoverX)) EUB0000595a TAOK3; details: at 10 µM
# T2 sequence (whole entry): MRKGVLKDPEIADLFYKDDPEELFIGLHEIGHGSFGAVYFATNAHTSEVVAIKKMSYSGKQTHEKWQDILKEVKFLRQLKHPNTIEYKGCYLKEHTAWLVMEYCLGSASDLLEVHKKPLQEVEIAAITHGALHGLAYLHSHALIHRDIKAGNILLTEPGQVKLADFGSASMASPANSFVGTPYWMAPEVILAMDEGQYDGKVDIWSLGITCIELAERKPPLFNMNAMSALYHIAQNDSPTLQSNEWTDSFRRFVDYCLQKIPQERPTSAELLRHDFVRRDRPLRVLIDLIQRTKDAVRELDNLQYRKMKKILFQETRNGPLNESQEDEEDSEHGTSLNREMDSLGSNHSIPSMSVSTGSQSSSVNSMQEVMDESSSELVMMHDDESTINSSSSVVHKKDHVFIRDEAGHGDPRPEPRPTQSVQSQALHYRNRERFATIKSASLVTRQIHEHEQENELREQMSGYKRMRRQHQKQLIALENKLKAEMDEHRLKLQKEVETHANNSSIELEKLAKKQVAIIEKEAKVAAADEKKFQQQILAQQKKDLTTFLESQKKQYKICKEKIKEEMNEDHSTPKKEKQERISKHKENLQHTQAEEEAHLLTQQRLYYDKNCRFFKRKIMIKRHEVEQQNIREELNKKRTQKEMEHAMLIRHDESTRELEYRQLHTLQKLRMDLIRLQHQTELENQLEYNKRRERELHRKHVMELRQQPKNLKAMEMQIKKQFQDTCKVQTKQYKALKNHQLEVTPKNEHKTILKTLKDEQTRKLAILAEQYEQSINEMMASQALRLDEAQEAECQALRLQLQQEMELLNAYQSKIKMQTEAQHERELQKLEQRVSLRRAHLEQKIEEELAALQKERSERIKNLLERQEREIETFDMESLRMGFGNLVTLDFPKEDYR
# [4] = molecular target: T3, Serine/threonine-protein kinase ICK (Homo sapiens) (UniProt Q9UPZ9); assay: Selectivity interaction (KinomeScan (DiscoverX)) EUB0000618a ICK; details: at 10 µM
# T3 sequence (whole entry): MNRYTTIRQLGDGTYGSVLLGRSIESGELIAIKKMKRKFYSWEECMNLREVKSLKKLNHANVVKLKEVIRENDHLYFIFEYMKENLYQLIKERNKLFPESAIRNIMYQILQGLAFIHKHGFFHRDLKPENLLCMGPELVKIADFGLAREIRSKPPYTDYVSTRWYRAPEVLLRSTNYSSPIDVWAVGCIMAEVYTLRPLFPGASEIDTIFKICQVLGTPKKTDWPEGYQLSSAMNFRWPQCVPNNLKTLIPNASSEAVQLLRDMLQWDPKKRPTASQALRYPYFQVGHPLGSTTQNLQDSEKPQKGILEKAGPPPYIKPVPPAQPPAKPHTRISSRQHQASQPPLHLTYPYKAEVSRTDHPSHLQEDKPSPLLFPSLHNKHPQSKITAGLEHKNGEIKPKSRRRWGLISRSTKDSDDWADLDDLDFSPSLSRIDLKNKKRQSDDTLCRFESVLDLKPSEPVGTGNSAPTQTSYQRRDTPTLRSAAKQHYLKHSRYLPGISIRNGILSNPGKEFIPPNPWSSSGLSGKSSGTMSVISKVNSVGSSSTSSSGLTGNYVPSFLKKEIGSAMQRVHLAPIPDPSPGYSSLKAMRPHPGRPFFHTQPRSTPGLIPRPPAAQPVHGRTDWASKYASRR
# Chain of Serine/threonine-protein kinase WNK2 (Homo sapiens) (Q9Y3S1 whole entry): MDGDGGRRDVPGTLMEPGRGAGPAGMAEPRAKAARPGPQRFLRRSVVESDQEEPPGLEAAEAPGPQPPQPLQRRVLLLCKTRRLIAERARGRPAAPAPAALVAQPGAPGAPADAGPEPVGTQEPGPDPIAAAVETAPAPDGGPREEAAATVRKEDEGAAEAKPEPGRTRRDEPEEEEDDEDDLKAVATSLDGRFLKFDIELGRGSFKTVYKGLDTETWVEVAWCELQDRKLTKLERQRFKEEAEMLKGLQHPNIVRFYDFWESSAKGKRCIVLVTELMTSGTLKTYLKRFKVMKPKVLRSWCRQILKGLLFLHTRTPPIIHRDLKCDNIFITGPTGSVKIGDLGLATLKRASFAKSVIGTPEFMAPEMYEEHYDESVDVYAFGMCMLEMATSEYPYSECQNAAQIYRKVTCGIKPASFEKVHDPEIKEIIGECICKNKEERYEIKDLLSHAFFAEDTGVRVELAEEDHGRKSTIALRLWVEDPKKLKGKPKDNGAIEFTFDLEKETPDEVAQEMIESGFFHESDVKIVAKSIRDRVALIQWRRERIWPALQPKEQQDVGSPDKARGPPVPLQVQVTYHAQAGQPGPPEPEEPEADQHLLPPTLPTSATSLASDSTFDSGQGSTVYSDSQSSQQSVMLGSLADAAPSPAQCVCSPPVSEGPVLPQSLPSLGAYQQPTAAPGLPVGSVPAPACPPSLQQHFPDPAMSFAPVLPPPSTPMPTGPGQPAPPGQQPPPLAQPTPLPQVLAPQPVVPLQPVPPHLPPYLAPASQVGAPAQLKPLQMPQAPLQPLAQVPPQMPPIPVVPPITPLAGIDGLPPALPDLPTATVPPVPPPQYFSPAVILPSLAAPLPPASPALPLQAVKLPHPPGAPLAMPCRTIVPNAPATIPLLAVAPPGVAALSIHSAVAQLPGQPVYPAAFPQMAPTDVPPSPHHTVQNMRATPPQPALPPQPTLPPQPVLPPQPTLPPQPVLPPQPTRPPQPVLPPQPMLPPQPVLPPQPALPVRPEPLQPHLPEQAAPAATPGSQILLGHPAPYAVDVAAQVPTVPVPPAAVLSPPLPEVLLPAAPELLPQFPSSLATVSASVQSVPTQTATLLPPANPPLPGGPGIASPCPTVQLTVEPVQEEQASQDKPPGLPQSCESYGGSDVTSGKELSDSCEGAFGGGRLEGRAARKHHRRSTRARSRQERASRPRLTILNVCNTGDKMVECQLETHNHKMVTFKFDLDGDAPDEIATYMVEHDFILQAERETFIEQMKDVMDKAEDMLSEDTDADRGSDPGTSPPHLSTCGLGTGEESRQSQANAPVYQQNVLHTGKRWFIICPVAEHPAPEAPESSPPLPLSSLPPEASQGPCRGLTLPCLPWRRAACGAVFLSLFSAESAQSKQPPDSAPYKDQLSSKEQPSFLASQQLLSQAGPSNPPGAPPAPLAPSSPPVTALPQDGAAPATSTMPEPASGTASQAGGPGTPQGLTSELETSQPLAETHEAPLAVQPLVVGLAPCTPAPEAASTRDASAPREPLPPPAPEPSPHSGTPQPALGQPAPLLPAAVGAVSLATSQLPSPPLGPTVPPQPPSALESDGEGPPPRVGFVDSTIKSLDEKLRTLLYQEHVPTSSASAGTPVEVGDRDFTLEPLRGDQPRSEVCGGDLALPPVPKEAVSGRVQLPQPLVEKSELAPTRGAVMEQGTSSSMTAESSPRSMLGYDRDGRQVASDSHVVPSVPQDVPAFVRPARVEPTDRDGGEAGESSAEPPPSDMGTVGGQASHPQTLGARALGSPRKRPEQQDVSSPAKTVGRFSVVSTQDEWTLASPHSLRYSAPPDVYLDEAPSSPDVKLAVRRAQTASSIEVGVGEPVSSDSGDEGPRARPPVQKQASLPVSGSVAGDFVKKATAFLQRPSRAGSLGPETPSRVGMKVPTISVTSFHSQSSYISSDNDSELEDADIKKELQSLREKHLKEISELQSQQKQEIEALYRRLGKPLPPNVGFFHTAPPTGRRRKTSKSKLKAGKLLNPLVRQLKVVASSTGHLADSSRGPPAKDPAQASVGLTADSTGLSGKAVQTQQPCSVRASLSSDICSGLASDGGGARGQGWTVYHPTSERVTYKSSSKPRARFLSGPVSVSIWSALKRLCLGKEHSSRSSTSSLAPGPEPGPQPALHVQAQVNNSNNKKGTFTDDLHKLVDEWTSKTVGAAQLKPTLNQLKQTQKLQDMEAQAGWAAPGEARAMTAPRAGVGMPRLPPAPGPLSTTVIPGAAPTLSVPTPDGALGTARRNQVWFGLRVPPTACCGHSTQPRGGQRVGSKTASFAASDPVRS
smiles,measurement,setting,value
Cc1cc([C@@H](C)Nc2ccccc2C(=O)O)c2nc(N3CCOCC3)cc(=O)n2c1 [AZD-6482],% of control,[1],100%
CC[C@@H]1[C@H](F)C(=O)N[C@@H]1COc1nccc2cc(C(N)=O)c(OC)cc12 [ZIMLOVISERTIB],% of inhibition,[2],-12%
COCC(=O)NC/C=C/c1ccc2ncnc(Nc3ccc(Oc4ccc(C)nc4)c(C)c3)c2c1 [CP-724714],% of control,[3],100%
O[C@H]1CC[C@H](Nc2ncc3nc(Nc4c(F)cc(F)cc4F)n([C@H]4CCOC4)c3n2)CC1,% of control,[4],100%
